Blank lines part the entries; values can stand above or below the molecule they belong to.
How the values were obtained:
[1] = tested on: BT-549; conditions: 72 h
In short: (§1)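 EC50 was fitted from dose-response curves and censored at the highest concentration tested. To build those curves, breast cancer cell lines (20 µl suspension) were seeded into 384-well plates containing compound at 5 concentrations in 10-fold steps over a compound-specific 10,000-fold range and incubated for 72 h. Readouts were CellTox Green fluorescence (485/520 nm) for cell death and then CellTiter-Glo luminescence for viability, with each plate normalised to 0.1 % DMSO and a positive kill control.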

[2] = tested on: CAL-120; conditions: 72 h
In short: as §1

[3] = tested on: CAL-148; conditions: 72 h
In short: as §1

[4] = tested on: CAL-51; conditions: 72 h
In short: as §1

[5] = tested on: CAL-85-1; conditions: 72 h
In short: as §1

[6] = tested on: DU-4475; conditions: 72 h
In short: as §1

[7] = tested on: HCC1143; conditions: 72 h
In short: as §1

[8] = tested on: HCC1599; conditions: 72 h
In short: as §1

[9] = tested on: HCC1937; conditions: 72 h
In short: as §1

[10] = tested on: Hs578T; conditions: 72 h
In short: as §1

[11] = tested on: MCF-10A; conditions: 72 h
In short: as §1

[12] = tested on: MDA-MB-231; conditions: 72 h
In short: as §1

[13] = tested on: MDA-MB-436; conditions: 72 h
In short: as §1

[14] = tested on: MDA-MB-453; conditions: 72 h
In short: as §1

[15] = tested on: MFM-223; conditions: 72 h
In short: as §1

[16] = tested on: SK-BR-3; conditions: 72 h
In short: as §1

[17] = tested on: CAL-148; conditions: 72 h; remark: listed apart in the source
In short: (§2)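 Each 384-well plate was pre-loaded with compound dissolved in 5 µl medium, received breast cancer cells in 20 µl suspension, and was incubated 72 h. A 2.5 µl addition of CellTiter-Blue for 2 h at 37 °C was followed by a fluorescence read at 560/590 nm. Data were normalised per plate to vehicle and a positive kill control and checked by Z'-factor. EC50 was fitted from the percent-inhibition dose-response curve, censored at the highest concentration, excluding rows with a drug sensitivity score of zero.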

[18] = tested on: CAL-51; conditions: 72 h; remark: listed apart in the source
In short: as §2

[19] = tested on: CAL-85-1; conditions: 72 h; remark: listed apart in the source
In short: as §2

[20] = tested on: DU-4475; conditions: 72 h; remark: listed apart in the source
In short: as §2

[21] = tested on: HDQ-P1; conditions: 72 h
In short: as §2

[22] = tested on: MDA-MB-453; conditions: 72 h; remark: listed apart in the source
In short: as §2

[23] = tested on: BT-474; conditions: 72 h
In short: as §2

[24] = tested on: BT-549; conditions: 72 h; remark: listed apart in the source
In short: as §2

[25] = tested on: CAL-120; conditions: 72 h; remark: listed apart in the source
In short: as §2

[26] = tested on: HCC1143; conditions: 72 h; remark: listed apart in the source
In short: as §2

[27] = tested on: HCC1599; conditions: 72 h; remark: listed apart in the source
In short: as §2

[28] = tested on: HCC1937; conditions: 72 h; remark: listed apart in the source
In short: as §2

[29] = tested on: Hs578T; conditions: 72 h; remark: listed apart in the source
In short: as §2

[30] = tested on: MDA-MB-231; conditions: 72 h; remark: listed apart in the source
In short: as §2

[31] = tested on: MDA-MB-436; conditions: 72 h; remark: listed apart in the source
In short: as §2

[32] = tested on: MDA-MB-468; conditions: 72 h
In short: as §2

[33] = tested on: MFM-223; conditions: 72 h; remark: listed apart in the source
In short: as §2

[34] = tested on: SK-BR-3; conditions: 72 h; remark: listed apart in the source
In short: as §2

[35] = tested on: BT-549; conditions: 72 h; remark: listed apart in the source
Description: (§3)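 Drug sensitivity and resistance testing (DSRT) of breast cancer cell lines in 384-well plates, 5 concentrations in 10-fold dilutions over a compound-specific 10,000-fold range. After 72 h, cytotoxicity was read by CellTox Green fluorescence and viability by CellTiter-Glo luminescence (multiplexed), normalised to DMSO and benzethonium chloride controls. EC50 is the inflection point of the fitted dose-response curve (bottom asymptote free, so it can be relative for partial curves) and is censored at the highest tested concentration. Rows with DSS 0 (no meaningful response) were excluded.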

[36] = tested on: CAL-51; conditions: 72 h; remark: listed apart in the source
Description: as §3

[37] = tested on: CAL-85-1; conditions: 72 h; remark: listed apart in the source
Description: as §3

[38] = tested on: HDQ-P1; conditions: 72 h; remark: listed apart in the source
Description: as §3

[39] = tested on: Hs578T; conditions: 72 h; remark: listed apart in the source
Description: as §3

[40] = tested on: MCF-10A; conditions: 72 h; remark: listed apart in the source
Description: as §3

[41] = tested on: MDA-MB-231; conditions: 72 h; remark: listed apart in the source
Description: as §3

[42] = tested on: MDA-MB-468; conditions: 72 h; remark: listed apart in the source
Description: as §3

[43] = tested on: MFM-223; conditions: 72 h; remark: listed apart in the source
Description: as §3

[44] = tested on: HDQ-P1; experiment: drug sensitivity score (DSS), CellTox Green (DSS (AUC-based score)); higher = stronger drug effect (viability inhibition or cytotoxicity); extreme values may be limits of the assay; conditions: incubation time: 72 h
In short: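 Breast cancer cells were seeded into 384-well plates containing compound at 5 concentrations in 10-fold steps over a compound-specific 10,000-fold range and incubated 72 h. After CellTox Green and CellTiter-Glo readings, each plate was normalised to 0.1 % DMSO and a positive kill control. The drug sensitivity score rests on the area under the fitted dose-response curve.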

[45] = tested on: DU-4475; conditions: 72 h; remark: listed apart in the source
Description: as §3

EC50, CellTiter-Glo [1]: 0.0419 µM
EC50, CellTiter-Glo [7]: 0.0465 µM
EC50, CellTiter-Glo [8]: 0.233 µM
EC50, CellTiter-Glo [9]: 0.0878 µM
EC50, CellTiter-Glo [12]: 0.0541 µM
EC50, CellTiter-Glo [13]: 0.0468 µM
EC50, CellTiter-Glo [14]: 0.0411 µM
EC50, CellTiter-Glo [16]: 0.0614 µM
EC50, CellTiter-Blue viability [22]: 0.125 µM
EC50, CellTiter-Blue viability [23]: 0.168 µM
EC50, CellTiter-Blue viability [24]: 0.249 µM
EC50, CellTiter-Blue viability [26]: 0.206 µM
EC50, CellTiter-Blue viability [27]: 0.15 µM
EC50, CellTiter-Blue viability [28]: 0.0797 µM
EC50, CellTiter-Blue viability [30]: 0.133 µM
EC50, CellTiter-Blue viability [31]: 0.376 µM
EC50, CellTiter-Blue viability [32]: 0.353 µM
EC50, CellTiter-Blue viability [34]: 0.123 µM
SMILES: CC(C)(C)c1cnc(CSc2cnc(NC(=O)C3CCNCC3)s2)o1 [SNS-032]
EC50, CellTiter-Glo [2]: 0.102 µM
EC50, CellTiter-Glo [3]: 0.0332 µM
EC50, CellTiter-Glo [4]: 0.0171 µM
EC50, CellTiter-Glo [5]: 0.0628 µM
EC50, CellTiter-Glo [6]: 0.203 µM
EC50, CellTiter-Glo [10]: 0.101 µM
EC50, CellTiter-Glo [11]: 0.157 µM
EC50, CellTiter-Glo [15]: 0.137 µM
EC50, CellTiter-Blue viability [17]: 0.128 µM
EC50, CellTiter-Blue viability [18]: 0.571 µM
EC50, CellTiter-Blue viability [19]: 0.128 µM
EC50, CellTiter-Blue viability [20]: 0.203 µM
EC50, CellTiter-Blue viability [21]: 0.11 µM
EC50, CellTiter-Blue viability [25]: 0.16 µM
EC50, CellTiter-Blue viability [29]: 0.101 µM
EC50, CellTiter-Blue viability [33]: 0.169 µM
EC50, CellTox Green [35]: 0.255 µM
EC50, CellTox Green [36]: 0.0111 µM
EC50, CellTox Green [37]: 0.0412 µM
EC50, CellTox Green [38]: 0.0322 µM
EC50, CellTox Green [39]: 0.0858 µM
EC50, CellTox Green [40]: 0.172 µM
EC50, CellTox Green [41]: 0.0309 µM
EC50, CellTox Green [42]: 7.58 µM
EC50, CellTox Green [43]: 0.142 µM
drug sensitivity score [44]: 11.4

EC50, CellTiter-Glo [8]: 1.67 µM
EC50, CellTiter-Glo [12]: 0.313 µM
EC50, CellTiter-Blue viability [26]: 0.023 µM
EC50, CellTiter-Blue viability [27]: 0.283 µM
EC50, CellTiter-Blue viability [28]: 1.07 µM
EC50, CellTiter-Blue viability [30]: 0.214 µM
SMILES: Cn1cnc2c(F)c(Nc3ccc(Br)cc3Cl)c(C(=O)NOCCO)cc21 [Selumetinib]
EC50, CellTiter-Glo [2]: 9.28 µM
EC50, CellTiter-Glo [6]: 0.21 µM
EC50, CellTiter-Glo [11]: 0.0204 µM
EC50, CellTiter-Blue viability [19]: 0.563 µM
EC50, CellTiter-Blue viability [20]: 0.0708 µM
EC50, CellTiter-Blue viability [21]: 0.159 µM
EC50, CellTiter-Blue viability [25]: 7.5 µM
EC50, CellTiter-Blue viability [29]: > 10 µM
EC50, CellTox Green [45]: 0.172 µM
EC50, CellTox Green [38]: 0.324 µM
EC50, CellTox Green [41]: 0.724 µM
EC50, CellTox Green [42]: 2.46 µM
drug sensitivity score [44]: 2.06

EC50, CellTiter-Glo [1]: 9.55 µM
EC50, CellTiter-Glo [7]: 4.32 µM
EC50, CellTiter-Glo [8]: 3.45 µM
EC50, CellTiter-Glo [9]: 0.729 µM
EC50, CellTiter-Glo [12]: 0.491 µM
EC50, CellTiter-Glo [13]: 4.73 µM
EC50, CellTiter-Glo [14]: 4.69 µM
EC50, CellTiter-Blue viability [24]: 9.86 µM
EC50, CellTiter-Blue viability [28]: 6.66 µM
EC50, CellTiter-Blue viability [30]: 0.212 µM
EC50, CellTiter-Blue viability [31]: 0.667 µM
EC50, CellTiter-Blue viability [32]: 0.748 µM
EC50, CellTiter-Blue viability [34]: 9.94 µM
SMILES: Nc1nc2[nH]cnc2c(=S)[nH]1 [Thioguanine]
EC50, CellTiter-Glo [2]: 1.32 µM
EC50, CellTiter-Glo [3]: 1.72 µM
EC50, CellTiter-Glo [4]: 2.31 µM
EC50, CellTiter-Glo [5]: 0.841 µM
EC50, CellTiter-Glo [6]: 4.33 µM
EC50, CellTiter-Glo [10]: 1.35 µM
EC50, CellTiter-Blue viability [17]: 6.6 µM
EC50, CellTiter-Blue viability [18]: > 10 µM
EC50, CellTiter-Blue viability [19]: 1.35 µM
EC50, CellTiter-Blue viability [25]: 1.14 µM
EC50, CellTiter-Blue viability [29]: 6.56 µM
drug sensitivity score [44]: 0
